Laboratory results reported in PubChem BioAssay (NCI).
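Dose response: 5 concentrations. Exposure: 48 h. Format: 96-well plates. Endpoint: linear interpolation; highest concentration if not reached. At the TGI there is no net growth.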

Columns and labels:
Assay in all cases: DTP human tumour cell line panel, 48 h
HT29 colon = system: HT29 colon
HOP-92 NSCLC = system: HOP-92 NSCLC
HCC-2998 colon = system: HCC-2998 colon
SNB-75 CNS = system: SNB-75 CNS
SF-268 CNS = system: SF-268 CNS
A498 renal = system: A498 renal
ACHN renal = system: ACHN renal
MCF7 breast = system: MCF7 breast
OVCAR-5 ovarian = system: OVCAR-5 ovarian
NCI-H226 lung = system: NCI-H226 lung
HS 578T breast = system: HS 578T breast
CCRF-CEM leukemia = system: CCRF-CEM leukemia
MDA-N = system: MDA-N
UO-31 renal = system: UO-31 renal
SW-620 colon = system: SW-620 colon
T-47D breast = system: T-47D breast
PC-3 prostate = system: PC-3 prostate
NCI-H522 lung = system: NCI-H522 lung
HL-60(TB) leukemia = system: HL-60(TB) leukemia
SK-MEL-5 melanoma = system: SK-MEL-5 melanoma
COLO 205 colon = system: COLO 205 colon
CAKI-1 renal = system: CAKI-1 renal
OVCAR-4 ovarian = system: OVCAR-4 ovarian
SNB-19 CNS = system: SNB-19 CNS
HCT-116 colon = system: HCT-116 colon
NCI-H23 lung = system: NCI-H23 lung
786-0 renal = system: 786-0 renal
MALME-3M melanoma = system: MALME-3M melanoma
MDA-MB-231 breast = system: MDA-MB-231 breast
TK-10 renal = system: TK-10 renal
SN12C renal = system: SN12C renal
A549 NSCLC = system: A549 NSCLC
BT-549 breast = system: BT-549 breast
MOLT-4 leukemia = system: MOLT-4 leukemia
MDA-MB-435 = system: MDA-MB-435
KM12 colon = system: KM12 colon
HCT-15 colon = system: HCT-15 colon
EKVX NSCLC = system: EKVX NSCLC
RXF 393 renal = system: RXF 393 renal
SK-MEL-2 melanoma = system: SK-MEL-2 melanoma
HOP-62 NSCLC = system: HOP-62 NSCLC
OVCAR-3 ovarian = system: OVCAR-3 ovarian
M14 melanoma = system: M14 melanoma
U251 CNS = system: U251 CNS
SF-295 CNS = system: SF-295 CNS
NCI/ADR-RES ovarian = system: NCI/ADR-RES ovarian
SK-MEL-28 melanoma = system: SK-MEL-28 melanoma
LOX IMVI melanoma = system: LOX IMVI melanoma
SR leukemia = system: SR leukemia
UACC-257 melanoma = system: UACC-257 melanoma
DU-145 prostate = system: DU-145 prostate
IGROV1 ovarian = system: IGROV1 ovarian
OVCAR-8 ovarian = system: OVCAR-8 ovarian
SF-539 CNS = system: SF-539 CNS
UACC-62 melanoma = system: UACC-62 melanoma
SK-OV-3 ovarian = system: SK-OV-3 ovarian
RPMI-8226 leukemia = system: RPMI-8226 leukemia
K-562 leukemia = system: K-562 leukemia
NCI-H460 lung = system: NCI-H460 lung

Question: COc1ccc(C(OCC2OC(n3cc(C)c(=O)[nH]c3=O)CC2n2cc(Cn3cc(Br)c(=O)[nH]c3=O)nn2)(c2ccccc2)c2ccccc2)cc1 (stereo unspecified) was tested. Which TGI (HT29 colon) did it give?
Answer: > 100 µM

Question: What about the TGI (HOP-92 NSCLC) of the same molecule?
Answer: > 100 µM

Question: What about the TGI (HCC-2998 colon) of the same molecule?
Answer: > 100 µM

Question: And the TGI (SNB-75 CNS)?
Answer: > 100 µM

Question: What about the TGI (SF-268 CNS) of the same molecule?
Answer: > 100 µM

Question: And the TGI (A498 renal)?
Answer: > 100 µM

Question: And the TGI (ACHN renal)?
Answer: > 100 µM

Question: What about the TGI (MCF7 breast) of the same molecule?
Answer: > 100 µM

Question: What about the TGI (OVCAR-5 ovarian) of the same molecule?
Answer: > 100 µM

Question: And the TGI (NCI-H226 lung)?
Answer: > 100 µM

Question: What about the TGI (HS 578T breast) of the same molecule?
Answer: > 100 µM

Question: What about the TGI (CCRF-CEM leukemia) of the same molecule?
Answer: > 100 µM

Question: And the TGI (MDA-N)?
Answer: > 100 µM

Question: And the TGI (UO-31 renal)?
Answer: > 100 µM

Question: What about the TGI (SW-620 colon) of the same molecule?
Answer: > 100 µM

Question: And the TGI (T-47D breast)?
Answer: > 100 µM

Question: What about the TGI (PC-3 prostate) of the same molecule?
Answer: > 100 µM

Question: And the TGI (NCI-H522 lung)?
Answer: > 100 µM

Question: And the TGI (HL-60(TB) leukemia)?
Answer: 5.09 µM

Question: What about the TGI (SK-MEL-5 melanoma) of the same molecule?
Answer: > 100 µM

Question: And the TGI (COLO 205 colon)?
Answer: > 100 µM

Question: And the TGI (CAKI-1 renal)?
Answer: > 100 µM

Question: And the TGI (OVCAR-4 ovarian)?
Answer: > 100 µM

Question: And the TGI (SNB-19 CNS)?
Answer: > 100 µM

Question: What about the TGI (HCT-116 colon) of the same molecule?
Answer: > 100 µM

Question: What about the TGI (NCI-H23 lung) of the same molecule?
Answer: > 100 µM

Question: What about the TGI (786-0 renal) of the same molecule?
Answer: > 100 µM

Question: And the TGI (MALME-3M melanoma)?
Answer: > 100 µM

Question: What about the TGI (MDA-MB-231 breast) of the same molecule?
Answer: > 100 µM

Question: And the TGI (TK-10 renal)?
Answer: > 100 µM

Question: What about the TGI (SN12C renal) of the same molecule?
Answer: > 100 µM

Question: And the TGI (A549 NSCLC)?
Answer: > 100 µM

Question: What about the TGI (BT-549 breast) of the same molecule?
Answer: > 100 µM

Question: What about the TGI (MOLT-4 leukemia) of the same molecule?
Answer: > 100 µM

Question: What about the TGI (MDA-MB-435) of the same molecule?
Answer: > 100 µM

Question: What about the TGI (KM12 colon) of the same molecule?
Answer: > 100 µM

Question: And the TGI (HCT-15 colon)?
Answer: > 100 µM

Question: What about the TGI (EKVX NSCLC) of the same molecule?
Answer: > 100 µM

Question: What about the TGI (RXF 393 renal) of the same molecule?
Answer: > 100 µM

Question: What about the TGI (SK-MEL-2 melanoma) of the same molecule?
Answer: > 100 µM

Question: And the TGI (HOP-62 NSCLC)?
Answer: > 100 µM

Question: And the TGI (OVCAR-3 ovarian)?
Answer: > 100 µM

Question: What about the TGI (M14 melanoma) of the same molecule?
Answer: > 100 µM

Question: And the TGI (U251 CNS)?
Answer: > 100 µM

Question: And the TGI (SF-295 CNS)?
Answer: > 100 µM

Question: What about the TGI (NCI/ADR-RES ovarian) of the same molecule?
Answer: > 100 µM

Question: What about the TGI (SK-MEL-28 melanoma) of the same molecule?
Answer: > 100 µM

Question: And the TGI (LOX IMVI melanoma)?
Answer: > 100 µM

Question: What about the TGI (SR leukemia) of the same molecule?
Answer: > 100 µM

Question: What about the TGI (UACC-257 melanoma) of the same molecule?
Answer: > 100 µM

Question: What about the TGI (DU-145 prostate) of the same molecule?
Answer: > 100 µM

Question: And the TGI (IGROV1 ovarian)?
Answer: > 100 µM

Question: And the TGI (OVCAR-8 ovarian)?
Answer: > 100 µM

Question: And the TGI (SF-539 CNS)?
Answer: > 100 µM

Question: What about the TGI (UACC-62 melanoma) of the same molecule?
Answer: > 100 µM

Question: What about the TGI (SK-OV-3 ovarian) of the same molecule?
Answer: > 100 µM

Question: And the TGI (RPMI-8226 leukemia)?
Answer: > 100 µM

Question: Which TGI (HT29 colon) does the source give for Oc1cc(O)c2c(c1)OC(c1ccc(O)c(O)c1)C(OC1(c3cc(O)c(O)c(O)c3)Oc3cc(O)cc(O)c3C(O)C1O)C2 (stereo unspecified) here?
Answer: 41 µM

Question: And the TGI (HOP-92 NSCLC)?
Answer: 84.4 µM

Question: And the TGI (HCC-2998 colon)?
Answer: > 100 µM

Question: What about the TGI (SNB-75 CNS) of the same molecule?
Answer: 60.8 µM

Question: What about the TGI (SF-268 CNS) of the same molecule?
Answer: 66.2 µM

Question: What about the TGI (A498 renal) of the same molecule?
Answer: > 49.9 µM

Question: What about the TGI (ACHN renal) of the same molecule?
Answer: > 100 µM

Question: What about the TGI (MCF7 breast) of the same molecule?
Answer: 40.2 µM

Question: And the TGI (OVCAR-5 ovarian)?
Answer: 59.3 µM

Question: And the TGI (NCI-H226 lung)?
Answer: 50.9 µM

Question: And the TGI (HS 578T breast)?
Answer: > 86.1 µM

Question: What about the TGI (CCRF-CEM leukemia) of the same molecule?
Answer: 43.7 µM

Question: What about the TGI (MDA-N) of the same molecule?
Answer: 49.5 µM

Question: What about the TGI (K-562 leukemia) of the same molecule?
Answer: 43.6 µM

Question: What about the TGI (UO-31 renal) of the same molecule?
Answer: 50.2 µM

Question: What about the TGI (SW-620 colon) of the same molecule?
Answer: 60.4 µM

Question: What about the TGI (T-47D breast) of the same molecule?
Answer: > 100 µM

Question: What about the TGI (PC-3 prostate) of the same molecule?
Answer: > 100 µM

Question: And the TGI (NCI-H522 lung)?
Answer: 49.7 µM

Question: What about the TGI (HL-60(TB) leukemia) of the same molecule?
Answer: 52.8 µM

Question: And the TGI (SK-MEL-5 melanoma)?
Answer: 34 µM

Question: And the TGI (COLO 205 colon)?
Answer: > 85.9 µM

Question: What about the TGI (CAKI-1 renal) of the same molecule?
Answer: 81.1 µM

Question: What about the TGI (OVCAR-4 ovarian) of the same molecule?
Answer: 67.3 µM

Question: What about the TGI (SNB-19 CNS) of the same molecule?
Answer: > 100 µM

Question: What about the TGI (HCT-116 colon) of the same molecule?
Answer: 62 µM

Question: What about the TGI (NCI-H23 lung) of the same molecule?
Answer: 50.4 µM

Question: And the TGI (786-0 renal)?
Answer: 67.8 µM

Question: And the TGI (MALME-3M melanoma)?
Answer: > 100 µM

Question: What about the TGI (MDA-MB-231 breast) of the same molecule?
Answer: 45.8 µM

Question: What about the TGI (TK-10 renal) of the same molecule?
Answer: > 100 µM

Question: And the TGI (SN12C renal)?
Answer: 46.2 µM

Question: And the TGI (A549 NSCLC)?
Answer: > 71.7 µM

Question: What about the TGI (BT-549 breast) of the same molecule?
Answer: > 83.6 µM

Question: And the TGI (MOLT-4 leukemia)?
Answer: 52.8 µM

Question: And the TGI (MDA-MB-435)?
Answer: 37.6 µM

Question: And the TGI (KM12 colon)?
Answer: > 70.9 µM

Question: What about the TGI (HCT-15 colon) of the same molecule?
Answer: > 100 µM

Question: And the TGI (EKVX NSCLC)?
Answer: 41.6 µM

Question: What about the TGI (RXF 393 renal) of the same molecule?
Answer: > 100 µM

Question: What about the TGI (SK-MEL-2 melanoma) of the same molecule?
Answer: > 69.9 µM

Question: What about the TGI (HOP-62 NSCLC) of the same molecule?
Answer: 56.2 µM

Question: What about the TGI (OVCAR-3 ovarian) of the same molecule?
Answer: > 80 µM

Question: And the TGI (M14 melanoma)?
Answer: > 65.6 µM

Question: And the TGI (U251 CNS)?
Answer: 46.2 µM

Question: What about the TGI (SF-295 CNS) of the same molecule?
Answer: > 100 µM

Question: What about the TGI (NCI/ADR-RES ovarian) of the same molecule?
Answer: 99.9 µM

Question: And the TGI (SK-MEL-28 melanoma)?
Answer: > 68.5 µM

Question: What about the TGI (LOX IMVI melanoma) of the same molecule?
Answer: 38.4 µM

Question: What about the TGI (SR leukemia) of the same molecule?
Answer: 84.7 µM

Question: And the TGI (NCI-H460 lung)?
Answer: 36.8 µM

Question: What about the TGI (UACC-257 melanoma) of the same molecule?
Answer: > 100 µM

Question: What about the TGI (DU-145 prostate) of the same molecule?
Answer: > 75.5 µM

Question: And the TGI (IGROV1 ovarian)?
Answer: > 86.2 µM

Question: What about the TGI (OVCAR-8 ovarian) of the same molecule?
Answer: > 67.7 µM

Question: And the TGI (SF-539 CNS)?
Answer: > 74.9 µM

Question: What about the TGI (UACC-62 melanoma) of the same molecule?
Answer: > 100 µM

Question: What about the TGI (SK-OV-3 ovarian) of the same molecule?
Answer: > 100 µM

Question: What about the TGI (RPMI-8226 leukemia) of the same molecule?
Answer: 49.5 µM
